≈ marks a conversion by molar mass, not a printed value.

This assay has as its system Mycobacterium tuberculosis H37Rv strains. Kind of assay: In vitro assay for antimicrobial susceptibility (microplate Alamar blue MIC). It is filed as cell-based. Conditions: Mycobacterium tuberculosis, H37RV, in vitro, Mycobacterium tuberculosis H37Rv strains; read-out: MIC (μg/mL) against H37Rv.
With `Cc1ccc(-n2c3c/c(=N\C4CC4)c(Nc4cncc(C)c4)cc-3nc3ccccc32)cc1` [TBI-342, 5-(4-Methylphenyl)-3-cyclopropylimino-2-(5-methyl-3-pyridyl)amino-3,5-dihydrophenazine], the MIC is 0.022 µg/mL (≈ 0.051 µM). To `Clc1ccc(-n2c3c/c(=N\C4CC4)c(Nc4cccnc4)cc-3nc3ccccc32)cc1Cl` [TBI-343, 5-(3,4-Dichlorophenyl)-3-cyclopropylimino-2-(3-pyridyl)amino-3,5-dihydrophenazine] belongs 0.014 µg/mL (≈ 0.0296 µM); to `COc1ncccc1Nc1cc2nc3ccccc3n(-c3ccc(C)cc3)c-2c/c1=N\C1CCC1` [TBI-344, 5-(4-Methylphenyl)-3-cyclobutylimino-2-(2-methoxy-3-pyridyl)amino-3,5-dihydrophenazine], 0.04 µg/mL (≈ 0.0867 µM). To `Cc1ccc(-n2c3c/c(=N\C4CCC4)c(Nc4cccnc4)cc-3nc3ccccc32)cc1` [TBI-345, 5-(4-Methylphenyl)-3-cyclobutylimino-2-(3-pyridyl)amino-3,5-dihydrophenazine] belongs 0.221 µg/mL (≈ 0.512 µM); to `Cc1ccc(-n2c3c/c(=N\C4CCC4)c(Nc4ccc(C)nc4)cc-3nc3ccccc32)cc1` [TBI-346, 5-(4-Methylphenyl)-3-cyclobutylimino-2-(6-methyl-3-pyridyl)amino-3,5-dihydrophenazine], 0.058 µg/mL (≈ 0.13 µM); to `Cc1ccc(-n2c3c/c(=N\C4CCC4)c(Nc4cccnc4C)cc-3nc3ccccc32)cc1` [TBI-347, 5-(4-Methylphenyl)-3-cyclobutylimino-2-(2-methyl-3-pyridyl)amino-3,5-dihydrophenazine], 0.042 µg/mL (≈ 0.0943 µM). To `Cc1ccc(-n2c3c/c(=N\C4CCC4)c(Nc4cncc(C)c4)cc-3nc3ccccc32)cc1` [TBI-348, 5-(4-Methylphenyl)-3-cyclobutylimino-2-(5-methyl-3-pyridyl)amino-3,5-dihydrophenazine] belongs 0.118 µg/mL (≈ 0.265 µM); to `Cc1ccc(-n2c3c/c(=N\C4CC4)c(Nc4cccnc4)cc-3nc3ccccc32)cc1` [TBI-349, 5-(4-Methylphenyl)-3-cyclopropylimino-2-(3-pyridyl)amino-3,5-dihydrophenazine], 0.0075 µg/mL (≈ 0.018 µM). On to `Clc1ccc(-n2c3c/c(=N\C4CCCCC4)c(Nc4cccnc4)cc-3nc3ccccc32)cc1Cl` [TBI-350, 5-(3,4-Dichlorophenyl)-3-cyclohexylimino-2-(3-pyridyl)amino-3,5-dihydrophenazine], for which the MIC turned out to be 0.031 µg/mL (≈ 0.0603 µM).

For `Clc1ccc(-n2c3c/c(=N\C4CCOCC4)c(Nc4cccnc4)cc-3nc3ccccc32)cc1Cl` [TBI-351, 5-(3,4-Dichlorophenyl)-3-(4-tetrahydropyranyl)imino-2-(3-pyridyl)amino-3,5-dihydrophenazine], the MIC was 0.079 µg/mL (≈ 0.153 µM).

As to `COC1CCC(/N=c2\cc3n(-c4ccc(Cl)c(Cl)c4)c4ccccc4nc-3cc2Nc2cccnc2)CC1` (stereo not shown) [TBI-352, 5-(3,4-Dichlorophenyl)-3-(4-methoxycyclohexyl)imino-2-(3-pyridyl)amino-3,5-dihydrophenazine], the MIC was 0.096 µg/mL (≈ 0.176 µM).

For the compound `Cc1ccc(Nc2cc3nc4ccccc4n(-c4ccc(Cl)c(Cl)c4)c-3c/c2=N\C(C)C)cn1` [TBI-353], the MIC is 0.025 µg/mL (≈ 0.0512 µM).

With `Cc1ccc(Nc2cc3nc4ccccc4n(-c4ccc(Cl)c(Cl)c4)c-3c/c2=N\C2CCCCC2)cn1` [TBI-354, 5-(3,4-Dichlorophenyl)-3-cyclohexylimino-2-(6-methyl-3-pyridyl)amino-3,5-dihydrophenazine], the MIC was 0.229 µg/mL (≈ 0.433 µM). Under `COC1CCC(/N=c2\cc3n(-c4ccc(Cl)c(Cl)c4)c4ccccc4nc-3cc2Nc2ccc(C)nc2)CC1` (stereo not shown) [TBI-355, 5-(3,4-Dichlorophenyl)-3-(4-methoxycyclohexyl)imino-2-(6-methyl-3-pyridyl)amino-3,5-dihydrophenazine] stands 0.09 µg/mL (≈ 0.161 µM); under `COc1ccc(Nc2cc3nc4ccccc4n(-c4ccc(C)cc4)c-3c/c2=N\C(C)C)cn1` [TBI-356, 5-(4-Methylphenyl)-3-(1-methylethyl)imino-2-(6-methoxy-3-pyridyl)amino-3,5-dihydrophenazine], 0.459 µg/mL (≈ 1.02 µM); under `COc1ccc(Nc2cc3nc4ccccc4n(-c4ccc(C)cc4)c-3c/c2=N\C2CCCCC2)cn1` [TBI-357, 5-(4-Methylphenyl)-3-cyclohexylimino-2-(6-methoxy-3-pyridyl)amino-3,5-dihydrophenazine], 0.228 µg/mL (≈ 0.466 µM). Take `COc1ccc(Nc2cc3nc4ccccc4n(-c4ccc(C)cc4)c-3c/c2=N\C2CCC(OC)CC2)cn1` (stereo not shown) [TBI-358, 5-(4-Methylphenyl)-3-(4-methoxycyclohexyl)imino-2-(6-methoxy-3-pyrid)amino-3,5-dihydrophenazine]: the MIC turned out to be 0.202 µg/mL (≈ 0.389 µM).

With `COc1ccc(Nc2cc3nc4ccccc4n(-c4ccc(C)cc4)c-3c/c2=N\C2CCOCC2)cn1` [TBI-360, 5-(4-Methylphenyl)-3-(4-tetrahydropyranyl)imino-2-(6-methoxy-3-pyridyl)amino-3,5-dihydrophenazine], the MIC came out at 0.2 µg/mL (≈ 0.407 µM). To `COc1ncccc1Nc1cc2nc3ccccc3n(-c3ccc(Cl)c(Cl)c3)c-2c/c1=N\C1CCOCC1` [TBI-361, 5-(3,4-Dichlorophenyl)-3-(4-tetrahydropyranyl)imino-2-(2-methoxy-3-pyridyl)amino-3,5-dihydrophenazine] belongs 0.08 µg/mL (≈ 0.146 µM); to `CC(C)/N=c1\cc2n(-c3ccc(Cl)cc3Cl)c3ccccc3nc-2cc1Nc1cccnc1` [TBI-363, 5-(2,4-Dichlorophenyl)-3-(1-methylethyl)imino-2-(3-pyridyl)amino-3,5-dihydrophenazine], 0.03 µg/mL (≈ 0.0632 µM). As for `COc1ncccc1Nc1cc2nc3ccccc3n(-c3ccc(OC(F)(F)F)cc3)c-2c/c1=N\C1CC1` [TBI-364, 5-(4-Trifluoromethoxyphenyl)-3-cyclopropylimino-2-(2-methoxy-3-pyridyl)amino-3,5-dihydrophenazine], the MIC was 0.015 µg/mL (≈ 0.029 µM). Under `COc1ncccc1Nc1cc2nc3ccccc3n(-c3ccc(OC(F)(F)F)cc3)c-2c/c1=N\C1CCCCC1` [TBI-365, 5-(4-Trifluoromethoxyphenyl)-3-cyclohexylimino-2-(2-methoxy-3-pyridyl)amino-3,5-dihydrophenazine] stands 0.018 µg/mL (≈ 0.0322 µM). To `Clc1ccc(-n2c3c/c(=N\C4CC4)c(Nc4cccnc4)cc-3nc3ccccc32)c(Cl)c1` [TBI-367, 5-(2,4-Dichlorophenyl)-3-cyclopropylimino-2-(3-pyridyl)amino-3,5-dihydrophenazine] belongs 0.023 µg/mL (≈ 0.0487 µM); to `Clc1ccc(-n2c3c/c(=N\C4CCCCC4)c(Nc4cccnc4)cc-3nc3ccccc32)c(Cl)c1` [TBI-368, 5-(2,4-Dichlorophenyl)-3-cyclohexylimino-2-(3-pyridyl)amino-3,5-dihydrophenazine], 0.054 µg/mL (≈ 0.105 µM). To `COc1ncccc1Nc1cc2nc3ccccc3n(-c3ccc(Cl)cc3Cl)c-2c/c1=N\C(C)C` [TBI-369, 5-(2,4-Dichlorophenyl)-3-(1-methylethyl)imino-2-(2-methoxy-3-pyridyl)amino-3,5-dihydrophenazine] belongs 0.104 µg/mL (≈ 0.206 µM); to `COc1ncccc1Nc1cc2nc3ccccc3n(-c3ccc(Cl)cc3Cl)c-2c/c1=N\C1CC1` [TBI-370, 5-(2,4-Dichlorophenyl)-3-cyclopropylimino-2-(2-methoxy-3-pyridyl)amino-3,5-dihydrophenazine], 0.052 µg/mL (≈ 0.104 µM). Consider `COc1ncccc1Nc1cc2nc3ccccc3n(-c3ccc(Cl)cc3Cl)c-2c/c1=N\C1CCC(OC)CC1` (stereo not shown) [TBI-371, 5-(2,4-Dichlorophenyl)-3-(4-methoxycyclohexyl)imino-2-(2-methoxy-3-pyridyl)amino-3,5-dihydrophenazine], for which the MIC was found to be 0.044 µg/mL (≈ 0.0766 µM). Under `COCC(COC)/N=c1\cc2n(-c3ccc(OC(F)(F)F)cc3)c3ccccc3nc-2cc1Nc1cccnc1OC` [TBI-372] stands 0.098 µg/mL (≈ 0.169 µM).

In the case of `COCC(COC)/N=c1\cc2n(-c3ccc(C)cc3)c3ccccc3nc-2cc1Nc1cccnc1OC` [TBI-373, 5-(4-Methylphenyl)-3-(1,3-dimethoxyisopropyl)imino-2-(2-methoxy-3-pyridyl)amino-3,5-dihydrophenazine], the MIC was found to be 0.125 µg/mL (≈ 0.245 µM). Under `COCC(COC)/N=c1\cc2n(-c3ccc(C)cc3)c3ccccc3nc-2cc1Nc1ccc(C)nc1` [TBI-374, 5-(4-Methylphenyl)-3-(1,3-dimethoxyisopropyl)imino-2-(6-methyl-3-pyridyl)amino-3,5-dihydrophenazine] stands 0.125 µg/mL (≈ 0.253 µM). Under `COCC(COC)/N=c1\cc2n(-c3ccc(Cl)c(Cl)c3)c3ccccc3nc-2cc1Nc1cccnc1OC` [TBI-375, 5-(3,4-Dichlorophenyl)-3-(1,3-dimethoxyisopropyl)imino-2-(2-methoxy-3-pyridyl)amino-3,5-dihydrophenazine] stands 0.125 µg/mL (≈ 0.221 µM); under `Clc1ccc(-n2c3c/c(=N\CCN4CCOCC4)c(Nc4cccnc4)cc-3nc3ccccc32)cc1` [TBI-433, 5-(4-Chlorophenyl)-3-(2-morpholinoethyl)imino-2-(3-pyridyl)amino-3,5-dihydrophenazine], 0.25 µg/mL (≈ 0.489 µM). Under `COc1ncccc1Nc1cc2nc3ccccc3n(-c3ccc(Cl)cc3)c-2c/c1=N\C(C)C` [TBI-438, 5-(4-Chlorophenyl)-3-(1-methylethyl)imino-2-(2-methoxy-3-pyridyl)amino-3,5-dihydrophenazine] stands 0.03 µg/mL (≈ 0.0638 µM); under `COc1ncccc1Nc1cc2nc3ccccc3n(-c3ccc(Cl)cc3)c-2c/c1=N\CCN1CCOCC1` [TBI-439, 5-(4-Chlorophenyl)-3-(2-morpholinoethyl)imino-2-(2-methoxy-3-pyridyl)amino-3,5-dihydrophenazine], 0.06 µg/mL (≈ 0.111 µM). As to `COc1ncccc1Nc1cc2nc3ccccc3n(-c3ccc(Cl)cc3)c-2c/c1=N\C1CCN(C)CC1` [TBI-440, 5-(4-Chlorophenyl)-3-(N-methyl-4-piperidyl)imino-2-(2-methoxy-3-pyridyl)amino-3,5-dihydrophenazine], the MIC worked out at 0.06 µg/mL (≈ 0.114 µM). Under `Cc1ccc(Nc2cc3nc4ccccc4n(-c4ccc(Cl)cc4)c-3c/c2=N\C(C)C)cn1` [TBI-441] stands 0.06 µg/mL (≈ 0.132 µM). To `COc1ncccc1Nc1cc2nc3ccccc3n(-c3ccc(Cl)cc3)c-2c/c1=N\C1CCN(CC(C)C)CC1` [TBI-442, 5-(4-Chlorophenyl)-3-(N-isobutyl-4-piperidyl)imino-2-(2-methoxy-3-pyridyl)amino-3,5-dihydrophenazine] belongs 0.016 µg/mL (≈ 0.0282 µM).

Source of the values: US8716292B2, “Riminophenazines with 2-(heteroaryl)amino substituents and their anti-microbial activity” (priority 2010, dated 2014).
